# Results: patent publication US12702677B2 (priority 2008, dated 2026)
# Tests used:
# [1] = adults; cited from earlier work
# [2] = tested on: matrix metalloproteinase 9 (MMP-9) expression; assay: Quantikine Human MMP-9 (total) immunoassay, MMP-9 expression in influenza-A-infected Vero cells; assay type: cell-based, African Green Monkey; conditions: influenza A-infected Vero cell supernatants, FIGS. 5 and 6
# Protocol: A Quantikine Human MMP-9 (total) Immunoassay Assay, R&D Systems, was used to quantify expression of MMP-9 in infected cells according to the manufacturer's protocol, which is incorporated herein by reference.
# Vero cells were plated at 1e^5 cells/mL in a 100 uL volume in tissue culture treated 96 well plates. The following day cells were infected with virus at a multiplicity of infection of 10 and viral activity was measured. For testing compounds, cells were preincubated with compound 1 hr prior to infection. After overnight incubation, the cells were harvested, lysed, and supernatants were subjected to assay.
# This MMP-9 assay employs the quantitative sandwich enzyme immunoassay technique. A monoclonal antibody specific for MMP-9 has been pre-coated onto a microplate. Standards and samples are pipetted into the wells, and MMP-9 is bound by the immobilized antibody. After washing away unbound substances, an enzyme-linked polyclonal antibody specific for MMP-9 is added to the wells. Following a wash to remove unbound antibody-enzyme reagent, a substrate solution is added to the wells and color develops in proportion to the amount of total MMP-9 (pro and/or active) bound in the initial step. The color development is stopped and the intensity of the color is measured.
# Test formulations are shown in Example 5, Table 1. […]
# A or B influenza virus = conditions: started during the first 48 hours after onset of symptoms; cited from earlier work
# [3] = animal studies, substantially high doses; cited from earlier work
structure (smiles),measurement,setting,value
"Cc1ncc(CO)c(CO)c1O [Vitamin B6, Pyridoxine]",safe intake,[1],up to 200 mg per day
"CCOC(=O)C1=C[C@@H](OC(CC)CC)[C@H](NC(C)=O)[C@@H](N)C1 [Formula T, oseltamivir phosphate]",inhibition of expression of MMP-9,[2],pronounced dose-dependent inhibition of expression of MMP-9
same,inhibition of expression of MMP-9,[2]; listed as Tamiflu®,inhibits expression of MMP-9
same,reduction of the duration of a typical seven day illness,A or B influenza virus,about one
"CC(=O)N[C@H]1[C@H]([C@H](O)[C@H](O)CO)OC(C(=O)O)=C[C@@H]1N=C(N)N [Relenza®, zanamivir]",reduction of the duration of a typical seven day illness,A or B influenza virus,about one
CC(N)C12CC3CC(CC(C3)C1)C2 (stereo not drawn) [rimantadine],teratogenicity and embryotoxicity,[3],teratogenic and embryotoxic
